Measurements reported in patent US10669252B2, “Benzazepine derivative, preparation method, pharmaceutical composition and use thereof” (SHANGHAI DE NOVO PHARMATECH CO., LTD., priority 2016, dated 2020).

How the values were obtained:
TLR8 = biological target: T1, TLR8 (Homo sapiens, UniProt Q9NR97); test: TLR8 cell based assay (HEK-BLUE-hTLR8, SEAP reporter linked to NF-κB activation); details: HEK-BLUE-hTLR8 cells
T1 construct: host or cells: HEK293 (HEK-BLUE-hTLR8)
T1 sequence (Q9NR97 27-1041): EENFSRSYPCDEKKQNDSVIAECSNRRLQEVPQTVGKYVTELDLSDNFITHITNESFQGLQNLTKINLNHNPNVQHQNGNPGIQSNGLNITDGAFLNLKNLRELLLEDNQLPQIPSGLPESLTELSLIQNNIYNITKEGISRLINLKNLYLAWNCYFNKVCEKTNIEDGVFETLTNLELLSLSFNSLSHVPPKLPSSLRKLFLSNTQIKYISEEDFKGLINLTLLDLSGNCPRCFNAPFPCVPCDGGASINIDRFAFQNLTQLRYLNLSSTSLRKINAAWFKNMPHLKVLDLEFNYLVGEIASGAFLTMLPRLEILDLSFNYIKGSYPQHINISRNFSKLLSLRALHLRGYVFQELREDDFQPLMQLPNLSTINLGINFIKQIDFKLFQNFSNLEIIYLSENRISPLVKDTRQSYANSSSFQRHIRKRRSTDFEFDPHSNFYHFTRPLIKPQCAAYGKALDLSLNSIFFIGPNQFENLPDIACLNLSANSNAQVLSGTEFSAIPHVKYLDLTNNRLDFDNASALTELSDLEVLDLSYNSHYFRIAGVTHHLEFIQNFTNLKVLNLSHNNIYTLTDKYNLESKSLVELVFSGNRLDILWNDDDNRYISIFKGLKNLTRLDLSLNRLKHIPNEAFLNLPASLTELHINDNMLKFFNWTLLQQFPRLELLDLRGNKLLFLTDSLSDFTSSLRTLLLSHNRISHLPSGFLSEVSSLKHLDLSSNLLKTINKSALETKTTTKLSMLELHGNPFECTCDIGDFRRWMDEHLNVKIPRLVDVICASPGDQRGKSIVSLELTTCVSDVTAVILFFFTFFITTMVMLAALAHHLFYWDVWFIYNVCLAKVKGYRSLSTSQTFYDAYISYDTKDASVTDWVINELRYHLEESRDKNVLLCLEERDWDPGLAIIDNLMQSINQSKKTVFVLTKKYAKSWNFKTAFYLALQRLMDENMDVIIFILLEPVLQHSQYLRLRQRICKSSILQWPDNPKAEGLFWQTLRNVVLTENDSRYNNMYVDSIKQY
Summary of the method: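 HEK-BLUE-hTLR8 cells (40,000/well) exposed 24 h at 37° C, 5% CO2 to compound, 10 points from 0.5 nM to 15 μM, 0.5% DMSO. Supernatant SEAP read with QUANTI-Blue (1.5 h, 37° C) at OD 650 nm; activation % normalized to DMSO and TLR8 agonist control, EC50 fitted.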

TLR7 = biological target: T2, TLR7 (Homo sapiens, UniProt Q9NYK1); test: TLR7 cell based assay (HEK-BLUE-hTLR7, SEAP reporter linked to NF-κB activation); details: HEK-BLUE-hTLR7 cells, 24 hours treatment, SEAP/QUANTI-Blue readout
T2 construct: host or cells: HEK293 (HEK-BLUE-hTLR7)
T2 sequence (Q9NYK1 27-1049): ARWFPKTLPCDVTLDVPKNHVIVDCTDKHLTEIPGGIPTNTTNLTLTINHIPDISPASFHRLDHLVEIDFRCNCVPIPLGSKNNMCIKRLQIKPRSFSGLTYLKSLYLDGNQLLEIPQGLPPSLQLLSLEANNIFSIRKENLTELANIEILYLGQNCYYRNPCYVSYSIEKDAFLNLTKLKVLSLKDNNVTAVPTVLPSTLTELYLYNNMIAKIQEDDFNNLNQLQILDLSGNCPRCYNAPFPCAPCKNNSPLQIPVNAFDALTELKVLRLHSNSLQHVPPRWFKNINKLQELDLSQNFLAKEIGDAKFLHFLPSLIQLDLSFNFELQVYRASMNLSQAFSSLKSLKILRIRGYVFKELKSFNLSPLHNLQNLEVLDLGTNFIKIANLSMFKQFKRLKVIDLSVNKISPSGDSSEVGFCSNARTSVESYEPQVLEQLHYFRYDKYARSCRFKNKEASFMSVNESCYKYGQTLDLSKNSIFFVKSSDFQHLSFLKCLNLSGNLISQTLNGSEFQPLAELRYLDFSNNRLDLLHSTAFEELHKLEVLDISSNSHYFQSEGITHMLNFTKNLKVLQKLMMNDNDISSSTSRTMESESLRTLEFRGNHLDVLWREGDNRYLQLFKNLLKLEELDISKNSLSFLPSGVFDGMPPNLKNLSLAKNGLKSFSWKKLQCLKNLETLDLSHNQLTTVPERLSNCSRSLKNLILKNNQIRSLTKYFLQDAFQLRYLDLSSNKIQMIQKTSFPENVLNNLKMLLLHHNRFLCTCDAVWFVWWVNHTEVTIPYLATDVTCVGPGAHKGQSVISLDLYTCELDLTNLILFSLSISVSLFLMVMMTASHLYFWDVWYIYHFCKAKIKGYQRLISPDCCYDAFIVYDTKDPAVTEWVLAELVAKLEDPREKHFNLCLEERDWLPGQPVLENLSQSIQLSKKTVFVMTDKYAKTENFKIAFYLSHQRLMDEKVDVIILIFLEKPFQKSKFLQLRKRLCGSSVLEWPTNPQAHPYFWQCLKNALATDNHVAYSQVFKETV
Experimental: In this assay, the bioactivity of compound of formula (I) was measured using a cell based assay. The assay was performed in human embryonic kidney cells (HEK293) expressing TLR7 or other TLR family members such as TLR4, and TLR9 (for selectivity screens). The activity of specific TLR agonists was assessed using the secretory embryonic alkaline phosphatase (SEAP) reporter gene that is linked to NF-κB activation in response to TLR stimulation. The SEAP activity was measured using the Quanti-Blue substrate (InvivoGen) after TLR agonist treatment.
The detailed experimental method is as follow:
HEK-BLUE-hTLR7 cell line was purchased from InvivoGen. The cells were cultured in Dulbecco's Modified Eagle's Media containing 4.5 g/L […] (Sigma-Aldrich) and 10% FBS. The cells were cultured at 37° C., 95% humidity and 5% CO2.
[…] A known TLR8 agonist was added as positive control and 1 μl of DMSO was added as negative control.
The cells were prepared as follows. The cells were removed from the incubator and growth medium was discarded. The cells were gently rinsed with pre-warmed 10 ml PBS for a T-150 flask. 12 ml pre-warmed growth medium was added, and the cells were detached by tapping the flask. Cell clumps were dissociated by gently pipetting up and down. The cells were counted. Single cell suspension was prepared at 200,000 cells per ml in growth medium and 200 μl of the cell suspension (40,000 cells per well) were immediately added to each well of the plate. The final DMSO concentration of each well was 0.5%.
The cells were cultured and treated with the compounds at 37° C., 5% CO2 for 24 hours.
20 μL of the supernatant of each well were added to 180 μL of QUANTI-Blue, and the plates were incubated at 37° C. for 1.5 hour. Optical density was measured using a spectrophotometer at 650 nm (OD data). Activivation was calculated by using the equation below: Activivation %=(Compound OD mean value−DMSO OD mean value)/(positive control OD mean value−DMSO OD mean value)×100
The data were analyzed using the GraphPad to get EC50 values and fitting dose response curves of the compounds.

[1] = 24 h treatment, SEAP/QUANTI-Blue readout

| EC50 (TLR8; [1]) | EC50 (TLR7) | EC50 (TLR8; bound stated) | Structure (SMILES) |
| --- | --- | --- | --- |
| < 0.1 µM | > 50 µM |  | CCCN(CCC)C(=O)C1=Cc2ccc(-c3ccc4c(=O)n(CC(N)=O)ccc4c3)cc2N=C(N)C1 [Compound 1-2-10] |
| < 0.1 µM | 10 to 50 µM |  | CCCN(CCC)C(=O)C1=Cc2c(C)cc(-c3ccc4c(=O)n(CCS(C)(=O)=O)ncc4c3)cc2N=C(N)C1 [Compound 2-2-2] |
| < 0.1 µM | > 50 µM |  | CCCN(CCC)C(=O)C1=Cc2ccc(-c3ccc4c(c3)CN(CCO)C4=O)cc2N=C(N)C1 [Compound 1-3-2] |
| < 0.1 µM | > 50 µM |  | CCCN(CCC)C(=O)C1=Cc2ccc(-c3ccc4c(=O)n(CCSC)ccc4c3)cc2N=C(N)C1 [Compound 1-2-22] |
| < 0.1 µM | > 50 µM |  | CCCN(CCC)C(=O)C1=Cc2ccc(-c3ccc4c(=O)n(Cc5ccn(C)n5)ccc4c3)cc2N=C(N)C1 [Compound 1-2-35] |
| < 0.1 µM | > 50 µM |  | CCCN(CCC)C(=O)C1=Cc2ccc(-c3ccc4c(=O)n(Cc5nccn5C)ccc4c3)cc2N=C(N)C1 [Compound 1-2-33] |
| < 0.1 µM | > 50 µM |  | CCCN(CCC)C(=O)C1=Cc2ccc(-c3ccc4c(=O)n(CC(=O)NC)c(=O)n(C)c4c3)cc2N=C(N)C1 [Compound 1-9-2] |
| < 0.1 µM | > 50 µM |  | CCCN(CCC)C(=O)C1=Cc2ccc(-c3ccc4c(=O)n(CC(=O)NC)ccc4c3)cc2N=C(N)C1 [Compound 1-2-21] |
| < 0.1 µM | > 50 µM |  | CCCN(CCC)C(=O)C1=Cc2ccc(-c3ccc4c(=O)n(CC(N)=O)c(C)cc4c3)cc2N=C(N)C1 [Compound 1-2-16] |
| < 0.1 µM | 10 to 50 µM | < 0.01 µM | CCCN(CCC)C(=O)C1=Cc2ccc(-c3ccc4c(=O)n(Cc5ncccn5)ccc4c3)cc2N=C(N)C1 [Compound 1-2-31] |
| < 0.1 µM | > 50 µM |  | CCCN(CCC)C(=O)C1=Cc2ccc(-c3ccc4c(=O)n(CCS(C)(=O)=O)ccc4c3)cc2N=C(N)C1 [Compound 1-2-23] |
| < 0.1 µM | > 50 µM |  | CCCN(CCC)C(=O)C1=Cc2ccc(-c3ccc4c(=O)n(CCO)ncc4c3)cc2N=C(N)C1 [Compound 1-8-3] |

| Structure (SMILES) | EC50 (TLR8; [1]) | EC50 (TLR7) | EC50 (TLR8; bound stated) |
| --- | --- | --- | --- |
| CCCN(CCC)C(=O)C1=Cc2ccc(-c3ccc4c(=O)n(CCP(=O)(OCC)OCC)ccc4c3)cc2N=C(N)C1 [Compound 1-2-43] | 0.1 to 1 µM | > 50 µM |  |
